A word on the MIC: it is the lowest concentration that inhibits growth of the organism. Usually IC50 stands for the concentration that inhibits the measured activity by half. A low value points to higher potency.

20 molecules from ChEMBL document CHEMBL1152526, “Synthesis of C(7) modified chrysin derivatives designing to inhibit beta-ketoacyl-acyl carrier protein synthase III (FabH) as antibiotics” (Bioorg Med Chem, 2009) can be followed below.

For one assay, the system named is Bacillus subtilis. In words: Antibacterial activity against Bacillus subtilis after 24 hrs by MTT assay. The assay is classed as functional.
The subject of a further assay is Escherichia coli. In words: Antibacterial activity against Escherichia coli after 24 hrs by MTT assay. The assay is classed as functional.
A short description of assay [1]: Inhibition of Escherichia coli FabH overexpressed in Escherichia coli DH10B cells by liquid scintillation counting.
A further assay has as its system Pseudomonas fluorescens. In words: Antibacterial activity against Pseudomonas fluorescens after 24 hrs by MTT assay. It is filed as functional.
Another assay relates to Staphylococcus aureus. In words: Antibacterial activity against Staphylococcus aureus after 24 hrs by MTT assay. The assay is classed as functional. On the technique in general: Formazan colour is commonly taken as a measure of viable cells.

In brackets after ≈: the same amount, converted by molar mass.

Take `CN1CCN(CCCOc2cc(O)c3c(=O)cc(-c4ccccc4)oc3c2)CC1`: the MIC in the assay with Bacillus subtilis stood at 6.25 mg/L (≈ 15.8 µM); with Escherichia coli, 6.25 mg/L (≈ 15.8 µM); against Pseudomonas fluorescens, 12.5 mg/L (≈ 31.7 µM); in the assay on Staphylococcus aureus, 3.13 mg/L (≈ 7.93 µM). The molecule also gave an IC50 in assay [1] of 5.2 µM.

In the case of `NCCCNCCOc1cc(O)c2c(=O)cc(-c3ccccc3)oc2c1`, the MIC against Bacillus subtilis, in the assay with Escherichia coli, with Pseudomonas fluorescens and in the assay on Staphylococcus aureus was over 50 mg/L throughout.

Regarding `O=c1cc(-c2ccccc2)oc2cc(OCCN3CCCCC3)cc(O)c12`, the MIC was determined as 25 mg/L (≈ 68.4 µM) against Bacillus subtilis, 12.5 mg/L (≈ 34.2 µM) with Escherichia coli, 12.5 mg/L (≈ 34.2 µM) in the assay with Pseudomonas fluorescens and 12.5 mg/L (≈ 34.2 µM) against Staphylococcus aureus.

Regarding `CCCCN(CCCC)CCOc1cc(O)c2c(=O)cc(-c3ccccc3)oc2c1`, the MIC in the assay with Bacillus subtilis, with Escherichia coli, with Pseudomonas fluorescens and in the assay on Staphylococcus aureus was over 50 mg/L each time.

With `O=c1cc(-c2ccccc2)oc2cc(OCCCN3CCCC3)cc(O)c12`, the minimum inhibitory concentration (MIC) in the assay with Bacillus subtilis amounted to 6.25 mg/L (≈ 17.1 µM); in the assay with Escherichia coli, 1.56 mg/L (≈ 4.27 µM); against Pseudomonas fluorescens it was 6.25 mg/L (≈ 17.1 µM); in the assay on Staphylococcus aureus, 3.13 mg/L (≈ 8.57 µM). In assay [1], this molecule came in with a half-maximal inhibitory concentration (IC50) of 3.1 µM.

Consider `O=c1cc(-c2ccccc2)oc2cc(OCCN3CCNCC3)cc(O)c12`, for which the minimal inhibitory concentration (MIC) is 25 mg/L (≈ 68.2 µM) with Bacillus subtilis, 12.5 mg/L (≈ 34.1 µM) in the assay with Escherichia coli, 6.25 mg/L (≈ 17.1 µM) with Pseudomonas fluorescens and 25 mg/L (≈ 68.2 µM) in the assay on Staphylococcus aureus. Besides, in assay [1], the 50% inhibitory concentration (IC50) is 11.2 µM.

For `CCCCNCCCOc1cc(O)c2c(=O)cc(-c3ccccc3)oc2c1`, the minimum inhibitory concentration (MIC) in the assay with Bacillus subtilis is 25 mg/L (≈ 68 µM); against Escherichia coli, 12.5 mg/L (≈ 34 µM); in the assay on Pseudomonas fluorescens, 12.5 mg/L (≈ 34 µM); against Staphylococcus aureus, 12.5 mg/L (≈ 34 µM).

`CCCCN(CCCC)CCCOc1cc(O)c2c(=O)cc(-c3ccccc3)oc2c1`: the minimum inhibitory concentration (MIC) against Bacillus subtilis, in the assay with Escherichia coli, in the assay with Pseudomonas fluorescens and in the assay with Staphylococcus aureus was over 50 mg/L throughout.

On to `CCN(CC)CCCOc1cc(O)c2c(=O)cc(-c3ccccc3)oc2c1`, for which the MIC in the assay with Bacillus subtilis, against Escherichia coli, in the assay on Pseudomonas fluorescens and in the assay on Staphylococcus aureus was over 50 mg/L each time.

On to `CCCNCCCOc1cc(O)c2c(=O)cc(-c3ccccc3)oc2c1`, for which the MIC was 25 mg/L (≈ 70.7 µM) in the assay on Bacillus subtilis, 12.5 mg/L (≈ 35.4 µM) with Escherichia coli, 12.5 mg/L (≈ 35.4 µM) in the assay with Pseudomonas fluorescens and 12.5 mg/L (≈ 35.4 µM) against Staphylococcus aureus.

Take `O=c1cc(-c2ccccc2)oc2cc(OCCCNCCO)cc(O)c12`: the MIC in the assay on Bacillus subtilis came out at 12.5 mg/L (≈ 35.2 µM); in the assay with Escherichia coli, 6.25 mg/L (≈ 17.6 µM); with Pseudomonas fluorescens it was 12.5 mg/L (≈ 35.2 µM); with Staphylococcus aureus it was 25 mg/L (≈ 70.3 µM).

With `O=c1cc(-c2ccccc2)oc2cc(OCCN3CCCC3)cc(O)c12`, the minimum inhibitory concentration (MIC) against Bacillus subtilis is 25 mg/L (≈ 71.1 µM); against Escherichia coli it was 6.25 mg/L (≈ 17.8 µM); in the assay on Pseudomonas fluorescens it was 12.5 mg/L (≈ 35.6 µM); with Staphylococcus aureus it was 25 mg/L (≈ 71.1 µM).

In the case of `CCCN(CCC)CCCOc1cc(O)c2c(=O)cc(-c3ccccc3)oc2c1`, the minimum inhibitory concentration (MIC) in the assay on Bacillus subtilis was 25 mg/L (≈ 63.2 µM); in the assay on Escherichia coli, 25 mg/L (≈ 63.2 µM); with Pseudomonas fluorescens, 25 mg/L (≈ 63.2 µM); against Staphylococcus aureus, over 50 mg/L.

Regarding `CCCNCCOc1cc(O)c2c(=O)cc(-c3ccccc3)oc2c1`, the MIC against Bacillus subtilis is 50 mg/L (≈ 147 µM); in the assay on Escherichia coli, 25 mg/L (≈ 73.7 µM); with Pseudomonas fluorescens, 25 mg/L (≈ 73.7 µM); with Staphylococcus aureus it was 50 mg/L (≈ 147 µM). Moreover, 54 µM corresponded to half-maximal inhibition in assay [1] (IC50).

As for `O=c1cc(-c2ccccc2)oc2cc(OCCCN3CCNCC3)cc(O)c12`, the MIC against Bacillus subtilis was found to be 12.5 mg/L (≈ 32.9 µM); with Escherichia coli, 3.13 mg/L (≈ 8.23 µM); against Pseudomonas fluorescens it was 12.5 mg/L (≈ 32.9 µM); in the assay with Staphylococcus aureus it was 6.25 mg/L (≈ 16.4 µM). This molecule came in with a half-inhibitory concentration (IC50) in assay [1] of 6.6 µM.

Turning to `CN1CCN(CCOc2cc(O)c3c(=O)cc(-c4ccccc4)oc3c2)CC1`, the minimum inhibitory concentration (MIC) turned out to be 50 mg/L (≈ 131 µM) against Bacillus subtilis, 12.5 mg/L (≈ 32.9 µM) with Escherichia coli, 25 mg/L (≈ 65.7 µM) against Pseudomonas fluorescens and 25 mg/L (≈ 65.7 µM) against Staphylococcus aureus.

Take `CCCN(CCC)CCOc1cc(O)c2c(=O)cc(-c3ccccc3)oc2c1`: the MIC with Bacillus subtilis, in the assay with Escherichia coli, with Pseudomonas fluorescens and with Staphylococcus aureus was over 50 mg/L in each case.

On to `CCN(CC)CCOc1cc(O)c2c(=O)cc(-c3ccccc3)oc2c1`, for which the minimal inhibitory concentration (MIC) in the assay on Bacillus subtilis, in the assay on Escherichia coli, in the assay on Pseudomonas fluorescens and with Staphylococcus aureus was over 50 mg/L throughout. The molecule further came in with an IC50 in assay [1] of 70 µM.

On to `NC[C@H]1O[C@H](O[C@H]2[C@H](O)[C@@H](O[C@H]3O[C@H](CO)[C@@H](O)[C@H](N)[C@H]3O)[C@H](N)C[C@@H]2N)[C@H](N)[C@@H](O)[C@@H]1O` [BEKANAMYCIN], for which the MIC with Bacillus subtilis was 1.56 mg/L (≈ 3.23 µM); against Escherichia coli it was 3.13 mg/L (≈ 6.47 µM); in the assay on Pseudomonas fluorescens it was 3.13 mg/L (≈ 6.47 µM); against Staphylococcus aureus, 1.56 mg/L (≈ 3.23 µM).

Take `O=c1cc(-c2ccccc2)oc2cc(O)cc(O)c12` [CHRYSIN]: the minimal inhibitory concentration (MIC) in the assay on Bacillus subtilis, against Escherichia coli, in the assay with Pseudomonas fluorescens and in the assay with Staphylococcus aureus was over 50 mg/L in each case.
